pEC50: −log10 of the molar value.
Target: T1, ΔF508-CFTR (Homo sapiens, UniProt P13569, DEL508-508)
T1 construct: expressed in transfected cells
Test: Membrane potential optical assay for potentiators of ΔF508-CFTR (FLIPR III, voltage sensing dyes)
Format: cell-based
Details: for Emax: NIH3T3, 100% efficacy is the maximum response obtained with 4-methyl-2-(5-phenyl-1H-pyrazol-3-yl)phenol, ΔF508 CFTR NIH 3T3 cells; for pEC50: temperature-corrected ΔF508 CFTR NIH 3T3 cells, forskolin activation
Excerpt: The assay utilizes fluorescent voltage sensing dyes to measure changes in membrane potential using a fluorescent plate reader (e.g., FLIPR III, Molecular Devices, Inc.) as a readout for increase in functional ΔF508-CFTR in NIH 3T3 cells.
To identify potentiators of ΔF508-CFTR, a double-addition HTS assay format was developed. This HTS assay utilizes fluorescent voltage sensing dyes to measure changes in membrane potential on the FLIPR III as a measurement for increase in gating (conductance) of ΔF508 CFTR in temperature-corrected ΔF508 CFTR NIH 3T3 cells.
Solutions • Bath Solution #1: (in mM) NaCl 160, KCl 4.5, CaCl2 2, MgCl2 1, HEPES 10, pH 7.4 with NaOH. • Chloride-Free Bath Solution: Chloride Salts in Bath Solution #1 are Substituted with Gluconate Salts.
NIH3T3 mouse fibroblasts stably expressing ΔF508-CFTR are used for optical measurements of membrane potential. The cells are maintained at 37° C. in 5% CO2 and 90% humidity in Dulbecco's modified Eagle's medium supplemented with 2 mM glutamine, 10% fetal bovine serum, 1×NEAA, β-ME, 1×pen/strep, and 25 mM HEPES in 175 cm^2 culture flasks. For all optical assays, the cells were seeded at ˜20,000/well in 384-well matrigel-coated plates and cultured for 2 hrs at 37° C. before culturing at 27° C. for 24 hrs. for the potentiator assay. For the correction assays, the cells are cultured at 27° C. or 37° C. with and without compounds for 16-24 hours. Electrophysiological Assays for assaying ΔF508-CFTR modulation properties of compounds.

T1 sequence (P13569 with tags, fused parts or gaps DEL508-508): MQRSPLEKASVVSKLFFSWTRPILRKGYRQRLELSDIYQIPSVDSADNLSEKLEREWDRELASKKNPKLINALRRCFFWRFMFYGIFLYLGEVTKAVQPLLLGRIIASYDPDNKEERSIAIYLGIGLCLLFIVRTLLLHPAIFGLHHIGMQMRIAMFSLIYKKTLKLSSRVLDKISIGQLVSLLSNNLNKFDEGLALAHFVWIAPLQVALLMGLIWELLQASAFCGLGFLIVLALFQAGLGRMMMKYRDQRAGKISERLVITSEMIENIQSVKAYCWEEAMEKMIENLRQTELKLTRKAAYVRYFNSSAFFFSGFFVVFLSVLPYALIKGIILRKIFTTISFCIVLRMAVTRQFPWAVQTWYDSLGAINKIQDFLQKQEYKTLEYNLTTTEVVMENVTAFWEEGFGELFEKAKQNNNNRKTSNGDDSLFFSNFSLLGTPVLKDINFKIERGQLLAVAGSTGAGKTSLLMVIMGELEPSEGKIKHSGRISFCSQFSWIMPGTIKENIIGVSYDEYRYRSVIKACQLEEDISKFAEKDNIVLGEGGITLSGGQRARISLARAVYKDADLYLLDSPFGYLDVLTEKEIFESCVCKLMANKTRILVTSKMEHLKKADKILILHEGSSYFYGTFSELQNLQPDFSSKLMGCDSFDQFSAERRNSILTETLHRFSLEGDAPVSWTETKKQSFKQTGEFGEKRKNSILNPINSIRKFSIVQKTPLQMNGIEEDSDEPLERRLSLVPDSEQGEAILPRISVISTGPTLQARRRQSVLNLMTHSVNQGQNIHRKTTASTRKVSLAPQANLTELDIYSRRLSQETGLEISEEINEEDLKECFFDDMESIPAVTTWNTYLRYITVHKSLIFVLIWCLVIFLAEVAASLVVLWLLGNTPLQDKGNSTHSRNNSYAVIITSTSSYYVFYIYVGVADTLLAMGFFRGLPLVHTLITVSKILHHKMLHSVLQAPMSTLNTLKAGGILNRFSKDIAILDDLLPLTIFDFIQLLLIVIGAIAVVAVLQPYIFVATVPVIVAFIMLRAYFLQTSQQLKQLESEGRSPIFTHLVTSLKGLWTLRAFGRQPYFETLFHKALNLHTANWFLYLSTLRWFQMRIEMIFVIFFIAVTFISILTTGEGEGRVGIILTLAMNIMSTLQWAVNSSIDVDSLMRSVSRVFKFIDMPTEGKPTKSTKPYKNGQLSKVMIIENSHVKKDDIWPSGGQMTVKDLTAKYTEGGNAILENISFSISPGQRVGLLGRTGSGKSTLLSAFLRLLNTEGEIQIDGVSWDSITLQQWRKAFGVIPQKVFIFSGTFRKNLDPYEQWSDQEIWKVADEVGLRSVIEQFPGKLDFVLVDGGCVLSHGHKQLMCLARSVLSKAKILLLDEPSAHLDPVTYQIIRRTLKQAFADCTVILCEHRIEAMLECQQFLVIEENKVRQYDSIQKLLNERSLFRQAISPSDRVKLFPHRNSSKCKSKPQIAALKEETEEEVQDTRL

SMILES | Emax [%] | pEC50
Cc1cc(F)c(NC(=O)C2CNc3ccccc3O2)cc1O (centres unmarked) [Compound 55] | 25 to 100 | > 5.30
Cc1cc(N2C3CCC2CC3)ncc1NC(=O)C1CNc2ccc(F)cc2O1 (centres unmarked) [Compound 56] | 25 to 100 | 4.70 to 5.30
O=C(Nc1cc(O)cc(C(F)(F)F)c1)C1CNc2ccccc2O1 (centres unmarked) [Compound 57] | 25 to 100 | > 5.30
CN(C)CC#Cc1cc(C2CCCC2)c(O)cc1NC(=O)[C@H]1CNc2cc(OC(F)(F)F)ccc2O1 [Compound 58] | > 100 | > 5.30
CC(C)(C)c1cc(C2CCCC2)c(O)cc1NC(=O)[C@@H]1CNc2cc(C#N)ccc2O1 [Compound 59] | 25 to 100 | > 5.30
CC(C)c1ccc(NC(=O)C2CNc3cc(Cl)ccc3O2)c(C#CCN(C)C)c1 (centres unmarked) [Compound 60] | 25 to 100 | > 5.30
O=C(Nc1cc(O)c(C2CCCC2)cc1F)C1CNc2ccc(F)cc2O1 (centres unmarked) [Compound 61] | 25 to 100 | > 5.30
Cc1ccc(NC(=O)C2CNc3cc(OC(F)(F)F)ccc3O2)c(C#CCN2CCN(C)CC2)c1 (centres unmarked) [Compound 62] | 25 to 100 | > 5.30
Cc1ccc(NC(=O)C2CNc3cc(OC(F)(F)F)ccc3O2)c(C#CCN2CCNC(=O)C2)c1 (centres unmarked) [Compound 63] | 25 to 100 | > 5.30
Cc1ccc(NC(=O)C2CNc3cc(OC(F)(F)F)ccc3O2)c(C#CCN2CCC(O)CC2)c1 (centres unmarked) [Compound 64] | 25 to 100 | > 5.30
CN(C)CC#Cc1cc(C2CCCC2)c(O)cc1NC(=O)[C@@H]1CNc2cc(OC(F)(F)F)ccc2O1 [Compound 65] | > 100 | > 5.30
CC(C)(C)c1cc(C2CCCC2)c(O)cc1NC(=O)C1CNc2cc(S(C)(=O)=O)ccc2O1 (centres unmarked) [Compound 66] | 25 to 100 | > 5.30
Cc1ccc(NC(=O)C2CNc3cc(Cl)ccc3O2)c(C#CCN(C)C)c1 (centres unmarked) [Compound 67] | 25 to 100 | > 5.30
CC1(c2cc(F)c(NC(=O)C3CNc4ccc(F)cc4O3)cc2O)CCCCC1 (centres unmarked) [Compound 68] | 25 to 100 | > 5.30
Cc1ccc(NC(=O)C2CNc3cc(OC(F)(F)F)ccc3O2)c(C#CCN2CCC(C(=O)O)CC2)c1 (centres unmarked) [Compound 69] | 25 to 100 | 4.70 to 5.30
CC(C)(C)c1ccc(NC(=O)C2CNc3ccc(C(F)(F)F)cc3O2)cc1O (centres unmarked) [Compound 70] | 25 to 100 | > 5.30
Cc1ccc(NC(=O)C2CNc3cc(OC(F)(F)F)ccc3O2)c(C#CCN2CCCCC2)c1 (centres unmarked) [Compound 71] | 25 to 100 | > 5.30
Cc1cc(C2CCCC2)c(O)cc1NC(=O)C1CNc2cc(S(C)(=O)=O)ccc2O1 (centres unmarked) [Compound 72] | 25 to 100 | > 5.30
Cc1ccc(NC(=O)C2CNc3cc(OC(F)(F)F)ccc3O2)c(C#CCN2CCCC2)c1 (centres unmarked) [Compound 73] | 25 to 100 | > 5.30
Cc1cc(C2CCCC2)c(O)cc1NC(=O)C1CNc2cc(C#N)ccc2O1 (centres unmarked) [Compound 74] | 25 to 100 | > 5.30
COC(=O)Cc1cc(C2CCCC2)c(O)cc1NC(=O)C1CNc2cc(OC(F)(F)F)ccc2O1 (centres unmarked) [Compound 75] | > 100 | > 5.30
O=C(Nc1cc(O)c(C2CCCC2)cc1C(F)(F)F)[C@@H]1CNc2cc(F)ccc2O1 [Compound 76] | 25 to 100 | > 5.30
CC(C)(C)c1ccc(NC(=O)[C@H]2CNc3ccc(F)cc3O2)cc1O [Compound 77] | 25 to 100 | > 5.30

SMILES | Emax [%] | pEC50
CC(C)(C)c1ccc(NC(=O)C2CNc3c(F)cccc3O2)cc1O (centres unmarked) [Compound 78] | 25 to 100 | > 5.30
CN(C)CC#Cc1cc(C2CCCC2)c(O)cc1NC(=O)C1(C)CNc2cc(OC(F)(F)F)ccc2O1 (centres unmarked) [Compound 79] | > 100 | > 5.30
CC1(c2cc(F)c(NC(=O)[C@H]3CNc4ccccc4O3)cc2O)CCCCC1 [Compound 80] | 25 to 100 | > 5.30
Cc1ccc(NC(=O)C2CNc3cc(OC(F)(F)F)ccc3O2)c(CCCN(C)C)c1 (centres unmarked) [Compound 81] | 25 to 100 | 4.70 to 5.30
COc1cc(NC(=O)C2CNc3ccc(F)cc3O2)c(Cl)cc1C(C)(C)O (centres unmarked) [Compound 82] | 25 to 100 | > 5.30
CC(C)(C)c1ccc(NC(=O)[C@@H]2CNc3ccc(F)cc3O2)cc1O [Compound 83] | 25 to 100 | > 5.30
CN(C)CC#Cc1cc(C2CCCC2)c(O)cc1NC(=O)[C@H]1CNc2ccccc2O1 [Compound 84] | 25 to 100 | > 5.30
CC(C)(C)c1ccc(NC(=O)C2CNc3cccc(C(F)(F)F)c3O2)cc1O (centres unmarked) [Compound 85] | 25 to 100 | > 5.30
Cc1ccc2c(c1)OC(C(=O)Nc1cc(O)c(C)cc1F)CN2 (centres unmarked) [Compound 86] | 25 to 100 | > 5.30
CC(C)(C)c1cc(C2CCCC2)c(O)cc1NC(=O)C1CNc2cc(C#N)ccc2O1 (centres unmarked) [Compound 87] | 25 to 100 | > 5.30
Cc1cc(C2CCCC2)c(O)cc1NC(=O)[C@H]1CNc2cc(C#N)ccc2O1 [Compound 88] | 25 to 100 | > 5.30
C[C@H]1CCCN1c1ccc(NC(=O)C2CNc3ccccc3O2)c(C(F)(F)F)c1 (some centres unmarked) [Compound 89] | 25 to 100 | > 5.30
CC(C)(C)c1cc(C(C)(C)C)c(NC(=O)C2CNc3ccccc3O2)cc1O (centres unmarked) [Compound 90] | 25 to 100 | > 5.30
Cc1ccc(NC(=O)C2CNc3cc(OC(F)(F)F)ccc3O2)c(C#CCN(C)C)n1 (centres unmarked) [Compound 91] | 25 to 100 | > 5.30
CC(C)(C)c1ccc(NC(=O)C2CNc3ccccc3O2)cc1F (centres unmarked) [Compound 92] | 25 to 100 | > 5.30
O=C(Nc1cc(O)c(C2CCCC2)cc1C(F)(F)F)[C@H]1CNc2cc(F)ccc2O1 [Compound 93] | 25 to 100 | > 5.30
COc1cc(NC(=O)C2CNc3ccc(F)cc3O2)ccc1C(C)(C)C (centres unmarked) [Compound 94] | 25 to 100 | > 5.30
COc1cc(NC(=O)C2CNc3cc(OC(F)(F)F)ccc3O2)c(C#CCN(C)C)cc1C1CCCC1 (centres unmarked) [Compound 95] | > 100 | > 5.30
Cc1cc(C#CC(=O)O)c(NC(=O)C2CNc3cc(OC(F)(F)F)ccc3O2)cc1O (centres unmarked) [Compound 96] | 25 to 100 | > 5.30
Cc1ccc2c(c1)NCC(C(=O)Nc1cc(O)c(C3(C)CCCCC3)cc1F)O2 (centres unmarked) [Compound 97] | 25 to 100 | > 5.30
CNCC#Cc1cc(C2CCCC2)c(O)cc1NC(=O)C1CNc2cc(OC(F)(F)F)ccc2O1 (centres unmarked) [Compound 98, N-(4-cyclopentyl-5-hydroxy-2-(3-(methylamino)prop-1-ynyl)phenyl)-6-(trifluoromethoxy)-3,4-dihydro-2H-benzo[b][1,4]oxazine-2-carboxamide] | 25 to 100 | > 5.30
CC1(c2cc(F)c(NC(=O)C3CNc4ccccc4O3)cc2O)CCCCC1 (centres unmarked) [Compound 99] | 25 to 100 | > 5.30
Cc1ccc(NC(=O)C2CNc3cc(OC(F)(F)F)ccc3O2)c(C#CCN2CCOCC2)c1 (centres unmarked) [Compound 100, N-(4-methyl-2-(3-morpholinoprop-1-ynyl)phenyl)-6-(trifluoromethoxy)-3,4-dihydro-2H-benzo[b][1,4]oxazine-2-carboxamide] | > 100 | > 5.30

From patent US8999976B2, “Modulators of cystic fibrosis transmembrane conductance regulator” (Vertex Pharmaceuticals Incorporated, priority 2008, dated 2015)
